Source: US6479478B1, “Carbapenem compounds” (Wyeth Lederle Japan, Ltd., priority 1998, dated 2002)
In brackets after ≈: the same amount, converted by molar mass.

Assays:
Test in all cases: Antibacterial test, agar plate dilution method (MIC)
Type in all cases: cell-based
S. schottmuelleri 8006 = conditions: MH agar, 37° C., 18 hours
Description: (§1) The antibacterial activities were tested by an agar plate dilution method in accordance with the standard method of The Japanese Chemotherapy Society [Chemotherapy, Vol.29, 76-79(1981)]. A Mulluer-Hinton (MH) agar liquid medium of a test microorganism was cultured overnight at 37° C. and the resultant culture medium was diluted with a buffered saline gelatin (BSG) solution to contain approximately 10^6 cells of the test microorganisms per milliliter, and then the diluted solution was inoculated with a micro-planter at the rate of approximately 5 μl on a MH agar medium containing a test compound. This medium was then incubated at 37° C. for 18 hours. The minimum inhibitory concentration (MIC) is determined as a minimum concentration in which no test microorganism could grow.
(§2) It is noted here that the test organisms used were all standard strains, and test compounds were Compound (8) and (15) obtained in Examples mentioned later.

P. vulgalis HX-19 = conditions: MH agar, 37° C., 18 hours
Description: as §1, §2

P. rettgeri IFO 3850 = conditions: Providencia rettgeri, IFO3850, MH agar, 37° C., 18 hours
Description: as §1, §2

B. subtilis ATCC 6633 = conditions: Bacillus subtilis, ATCC6633, MH agar, 37° C., 18 hours
Description: as §1, §2

S. typhi 901 = conditions: Salmonella enterica, 18 h
Description: as §1, §2

M. luteus ATCC 9341 = conditions: Micrococcus luteus, ATCC9341, MH agar, 37° C., 18 hours
Description: as §1, §2

P. mirabilis IFO 3849 = conditions: Proteus mirabilis, IFO3849, MH agar, 37° C., 18 hours
Description: as §1, §2

P. vulgaris OX-19 = conditions: Proteus vulgaris, OX19, MH agar, 37° C., 18 hours
Description: as §1, §2

S. paratyphi 1015 = conditions: Salmonella enterica, MH agar, 37° C., 18 hours
Description: as §1, §2

S. aureus Terajima = conditions: Staphylococcus aureus, MH agar, 37° C., 18 hours
Description: as §1, §2

P. aeruginosa IFO 3445 = conditions: Pseudomonas aeruginosa, IFO3445, MH agar, 37° C., 18 hours
Description: as §1, §2

M. morganii IFO 3848 = conditions: Morganella morganii, IFO3848, MH agar, 37° C., 18 hours
Description: as §1, §2

K. pneumoniae PCI-602 = conditions: Klebsiella pneumoniae, PCI602, MH agar, 37° C., 18 hours
Description: as §1, §2

S. pyogenes Cook = conditions: Streptococcus pyogenes, MH agar, 37° C., 18 hours
Description: as §1, §2

E. coli K-12 C600 = conditions: Escherichia coli, K12C600, MH agar, 37° C., 18 hours
Description: as §1, §2

S. enteritridis G14 = conditions: MH agar, 37° C., 18 hours
Description: as §1, §2

S. aureus MS 353 = conditions: Staphylococcus aureus, MS353, MH agar, 37° C., 18 hours
Description: as §1, §2

E. coli NIHJ JC-2 = conditions: Escherichia coli, NIHJJC2, MH agar, 37° C., 18 hours
Description: as §1, §2

P. aeruginosa PAO 1 = conditions: Pseudomonas aeruginosa, PAO1, MH agar, 37° C., 18 hours
Description: as §1, §2

E. cloacae 963 = conditions: Enterobacter cloacae, MH agar, 37° C., 18 hours
Description: as §1, §2

S. aureus FDA 209 JC-1 = conditions: Staphylococcus aureus, FDA209, MH agar, 37° C., 18 hours
Description: as §1, §2

E. aerogenes ATCC 13048 = conditions: Klebsiella aerogenes, ATCC13048, MH agar, 37° C., 18 hours
Description: as §1, §2

S. typhimurium 11D971 = conditions: Salmonella enterica, MH agar, 37° C., 18 hours
Description: as §1, §2

P. aeruginosa NCTC 10490 = conditions: Pseudomonas aeruginosa, NCTC10490, MH agar, 37° C., 18 hours
Description: as §1, §2

Structure (SMILES)	MIC (S. schottmuelleri 8006) [mg/L]	MIC (P. vulgalis HX-19) [mg/L]	MIC (P. rettgeri IFO 3850) [mg/L]	MIC (B. subtilis ATCC 6633) [mg/L]	MIC (S. typhi 901) [mg/L]	MIC (M. luteus ATCC 9341) [mg/L]	MIC (P. mirabilis IFO 3849) [mg/L]	MIC (P. vulgaris OX-19) [mg/L]	MIC (S. paratyphi 1015) [mg/L]	MIC (S. aureus Terajima) [mg/L]	MIC (P. aeruginosa IFO 3445) [mg/L]	MIC (M. morganii IFO 3848) [mg/L]	MIC (K. pneumoniae PCI-602) [mg/L]	MIC (S. pyogenes Cook) [mg/L]	MIC (E. coli K-12 C600) [mg/L]	MIC (S. enteritridis G14) [mg/L]	MIC (S. aureus MS 353) [mg/L]	MIC (E. coli NIHJ JC-2) [mg/L]	MIC (P. aeruginosa PAO 1) [mg/L]	MIC (E. cloacae 963) [mg/L]	further results
C[C@@H](O)[C@H]1C(=O)N2C(C(=O)O)=C(SC3CN(C4=NCCN4C)C3)[C@H](C)[C@H]12 [Compound (8), (1R,5S,6S)-2-[1-(1-methy-2-imidazolin-2-yl)azetidin-3-yl]-thio-6-[(R)-1-hydroxyethyl]-1-methylcarbapen-2-em-3-carbolic acid]	0.1 (≈ 0.263 µM)	0.39 (≈ 1.03 µM)	0.05 (≈ 0.131 µM)	0.025 (≈ 0.0657 µM)	0.025 (≈ 0.0657 µM)	0.025 (≈ 0.0657 µM)	0.78 (≈ 2.05 µM)	0.2 (≈ 0.526 µM)	0.1 (≈ 0.263 µM)	0.013 (≈ 0.0342 µM)	3.13 (≈ 8.23 µM)	0.2 (≈ 0.526 µM)	0.1 (≈ 0.263 µM)	≤ 0.006	0.1 (≈ 0.263 µM)	0.2 (≈ 0.526 µM)	0.013 (≈ 0.0342 µM)	0.025 (≈ 0.0657 µM)	12.5 (≈ 32.9 µM)	0.1 (≈ 0.263 µM)	MIC (S. aureus FDA 209 JC-1): 0.025 mg/L (≈ 0.0657 µM); MIC (E. aerogenes ATCC 13048): 0.1 mg/L (≈ 0.263 µM); MIC (S. typhimurium 11D971): 0.05 mg/L (≈ 0.131 µM); MIC (P. aeruginosa NCTC 10490): 12.5 mg/L (≈ 32.9 µM)
C[C@@H](O)[C@H]1C(=O)N2C(C(=O)O)=C(SC3CN(C4=NCCN4)C3)[C@H](C)[C@H]12 [Compound (15), (1R,5S,6S)-2-[1-(1,3-imidazolin-2-yl)azetidin-3-yl]thio-6-[(R)-1-hydroxyethyl]-1-methylcarbapen-2-em-3-carbolic acid]	0.1 (≈ 0.273 µM)	0.78 (≈ 2.13 µM)	0.025 (≈ 0.0682 µM)	0.025 (≈ 0.0682 µM)	0.025 (≈ 0.0682 µM)	0.05 (≈ 0.136 µM)	0.78 (≈ 2.13 µM)	0.78 (≈ 2.13 µM)	0.1 (≈ 0.273 µM)	≤ 0.006	1.56 (≈ 4.26 µM)	1.56 (≈ 4.26 µM)	0.05 (≈ 0.136 µM)	≤ 0.006	0.2 (≈ 0.546 µM)	1.56 (≈ 4.26 µM)	0.013 (≈ 0.0355 µM)	0.025 (≈ 0.0682 µM)	3.13 (≈ 8.54 µM)	0.05 (≈ 0.136 µM)	MIC (S. aureus FDA 209 JC-1): 0.025 mg/L (≈ 0.0682 µM); MIC (E. aerogenes ATCC 13048): 0.1 mg/L (≈ 0.273 µM); MIC (S. typhimurium 11D971): 0.05 mg/L (≈ 0.136 µM); MIC (P. aeruginosa NCTC 10490): 1.56 mg/L (≈ 4.26 µM)
